Where a name gives a salt, the structure may show the parent alone.
Key:
[1] = Storage of tablets at room temperature in an open container (discoloration); format: physicochemical; details: tablets stored 9 days at room temperature (15-25° C.) in an open container
Procedure: Tablets were stored for 9 days at room temperature (15-25° C.) in an open container.

mammals = assay: Toxicity of prasugrel salts with regard to mammals; format: in vivo; details: compared with other salts
Description: Although the exact reason for this low toxicity hat not yet been found, it is assumed that this effect is due to a different solubility of the salts. The toxicity and safety margin of prasugrel can be controlled by varying the solubility of its salts.

[2] = Hygroscopicity of the salts; format: physicochemical
[3] = Corrosiveness of the salts; format: physicochemical

discoloration of tablets on storage [1] | hygroscopicity [2] | Molecule | toxicity (mammals) | corrosiveness [3]
clear discoloration | – | CC(=O)Oc1cc2c(s1)CCN(C(C(=O)C1CC1)c1ccccc1F)C2 (stereo not shown) [prasugrel-HCl, Prasugrel-Hydrochloride] | – | –
– | not hygroscopic | CC(=O)Oc1cc2c(s1)CCN(C(C(=O)C1CC1)c1ccccc1F)C2.O=S(=O)(O)c1cccc2c(S(=O)(=O)O)cccc12 (stereo not shown) [prasugrel napadisylate, Prasugrel-1,5-Dinapsylate] | – | not corrosive
– | not hygroscopic | CC(=O)Oc1cc2c(s1)CCN(C(C(=O)C1CC1)c1ccccc1F)C2.O=S(=O)(O)c1ccc2ccccc2c1 (stereo not shown) [prasugrel napsylate, Prasugrel-2-Napsylate] | – | not corrosive

Molecule | discoloration of tablets on storage [1] | hygroscopicity [2] | toxicity (mammals) | corrosiveness [3]
Prasugrel-Besylate [prasugrel besylate] | – | not hygroscopic | very low toxicity | –
